“And” between values parts separate entries of the source, which are not always exact repeats. Equal entries are not always repeated. “Also recorded” adds a separate entry of the source.
Key:
[1] = test system: Human pulmonary artery endothelial cells; assay: Transendothelial electrical resistance (TER) of human pulmonary artery endothelial cell monolayers; assay type: cell-based
Experimental: Bovine pulmonary artery endothelial cells were purchased from the American Type Culture Collection (ATCC®, Rockville, Md.) and utilized at passage 19-24. Cells were maintained in Medium 199 (Life Technologies, Rockville, Md.) supplemented with 20% (v/v) colostrum-free bovine serum (CFBS) (Irvine Scientific, Santa Ana, Calif.), 15 μg/ml endothelial cell growth supplement (Upstate Biotechnology, Lake Placid, N.Y.), 1% antibiotic and antimycotic, and 0.1 mM non-essential amino acids (Life Technologies). Human pulmonary artery endothelial cells were purchased from Clonetics (Walkersville, Md.), cultured in EBM-2 complete medium (Clonetics) and utilized at passage 5-10. Human alveolar epithelial cells (A549) were purchased from ATCC® and cultured in the same medium as the bovine endothelial cells, except that the endothelial cell growth supplement was omitted. All cells were maintained at 37° C. in a humidified atmosphere of 5% CO2 and 95% air. Both endothelial cell types grew to contact-inhibited monolayers with the typical cobblestone morphology (Garcia, J. G. N. et al. (1995) J. Cell. Physiol. 163:510-522; Liu, F. et al. (2001) Am. J. Respir. Cell. Mol. Biol. 24:711-719).
Electrical resistance of EC monolayers was measured using electrical cell impedance sensor system (Applied Biophysics Inc., Troy, N.Y.) as described in Garcia, J. G. N. et al. (2000) J. Appl. Physiol. 89:2333-2343. Cells grown on gold microelectrodes (10^−3 cm^2) in polycarbonate wells act as insulating particles, and the resistance across the monolayers (transendothelial electrical resistance, or TER) is measured in real time. As cells adhere on the microelectrode and intercellular cell contacts are formed or in response to agents which increase junctional integrity, the TER increases (Garcia, J. G. N. et al. (2001) J. Clin. Invest. 108:689-711). In contrast, cell retraction, rounding, or loss of adhesion is reflected by decreases in TER (Garcia, J. G. N. et al. (2000) J. Appl. Physiol. 89:2333-2343). These measurements provide a highly sensitive biophysical assay that indicates the state of cell shape, focal adhesion, and endothelial barrier function (Giaever, I. and Keese, C. R. (1993) Nature 366:591-592; Tiruppathi, C. et al. (1992) Proc. Natl. Acad. Sci. USA 89:7919-7923). All electrical resistance data are presented as normalized values. Briefly, current was applied across the electrodes by a 4000 Hz AC voltage source with an amplitude of 1 V in series with a 1 MΩ resistance to approximate a constant current source (−1 μA). The small gold electrode and the larger counter electrode (1 cm^2) were connected to a phase-sensitive lock-in amplifier (5301A; EG&G Instruments Corp, Princeton, N.J.) with a built in differential preamplifier (5316A; EG&G Instruments Corp.). The in-phase and out-of-phase voltages between the electrodes were monitored in real time with the lock-in amplifier and converted to scalar measurements of transendothelial impedance, of which resistance was the primary focus. Transendothelial electrical resistance was monitored for 30 min to establish a baseline resistance (Ro) which, for human lung endothelium, was typically between 8 to 12×10^3 Ω (wells with R0<7×10^3 Ω or R0 >15×10^3 Ω were rejected). For some experiments, total TER was vectorially resolved into components reflecting resistance to current flow beneath the cell layer (α) and resistance to current flow between adjacent cells (Rb) as described in Garcia et al. (2000) supra utilizing the method of Giaiver and Keese which models the endothelial monolayer mathematically (Giaever, I. and Keese, C. R. (1993) Nature 366:591-592). Thus, changes in α reflect alterations in the net state of cell-matrix adhesion, whereas changes in Rb reflect alterations in the integrity of cell-cell adhesion. TER values from each microelectrode were pooled at discrete time points and plotted versus time as the mean±standard error of the mean (Garcia et al. (2000) supra). […]

[2] = test system: human alveolar epithelial cells (A549); assay: Electrical resistance of A549 alveolar epithelial cells on gold microelectrodes; assay type: cell-based; details: HGF 100 ng/mL; sphingosine 1-phosphate 1 μM
Experimental: FIGS. 1A-1D depict HGF-mediated increases in human transendothelial electrical resistance (TER). FIG. 1A: Human pulmonary artery endothelial cells were grown to confluence on gelatinized gold microelectrodes. Two hours prior to TER measurement, growth medium was replaced with serum-free M199. Serial-diluted HGF was added to cells at indicated concentrations and TER monitored for 2.5 hr. […] The result shown is a representative TER tracing of three independent experiments. FIG. 1B: Similar to FIG. 1A, human alveolar epithelial cells (A549) were grown on gold microelectrodes and challenged with vehicle, HGF, (100 ng/mL) or sphingosine 1-phosphate (1 μM). […]
Electrical resistance of EC monolayers was measured using electrical cell impedance sensor system (Applied Biophysics Inc., Troy, N.Y.) as described in Garcia, J. G. N. et al. (2000) J. Appl. […] Cells grown on gold microelectrodes (10^−3 cm^2) in polycarbonate wells act as insulating particles, and the resistance across the monolayers (transendothelial electrical resistance, or TER) is measured in real time. […] The in-phase and out-of-phase voltages between the electrodes were monitored in real time with the lock-in amplifier and converted to scalar measurements of transendothelial impedance, of which resistance was the primary focus. […]

## HGF: heparin-binding glycoprotein, multifunctional cytokine, ligand of c-Met; purchased from R&D Systems
[1]; HGF 100 ng/ml, at peak
  increase in TER (barrier enhancement): ~50% and > 50%
[1]; HGF 2-100 ng/ml, NK2 1-100 ng/ml
  direct effect on TER: increased TER in a dose-dependent manner
[1]; HGF 2 to 100 ng/ml
  time at which elevation in TER is clearly evident: 1 to 2 min
[1]; HGF >100 ng/ml
  further increase in TER above 100 ng/ml: No further significant increases in TER
[1]; after exposure to 100 ng/ml HGF
  time of peak TER increase: 15 to 20 min
[1]; pretreatment with HGF at 10 and 100 ng/mL
  TER response to re-stimulation with HGF (10 ng/ml) at 2 hr: significantly reduced the subsequent HGF responses
[1]; prior HGF stimulation at 1 ng/ml
  TER response to re-stimulation with HGF (10 ng/ml) at 2 hr: not altered
[1]; vectorial partitioning of TER after HGF treatment
  paracellular junction resistance (Rb): sharp increases
[2]
  effect on electrical resistance of epithelial cells: did not alter TER values; also recorded: completely without effect

Source: patent US20050004029A1, “Methods and compositions for treating vascular leak using hepatocyte growth factor” (priority 2001, published 2005)
